Measurements reported in ChEMBL document CHEMBL1201862, “PubChem BioAssay data set” (2004).
Active and inactive are the calls of the source. Rule as the data show it, for most assays here: actives have a measured EC50 and inactives only a lower limit.

Assays:
[1] = target: T1, RNA-binding protein pos-1 (Caenorhabditis elegans, UniProt G5EF15); experiment: disruptors of C. elegans POS-1 RNA interaction – biochemical, fluorescence polarization, dose response (AID 1964);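 also: purified POS-1 fused to maltose binding protein made in E. coli; potency of compounds blocking POS-1 binding to fluorescent RNA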
T1 sequence (G5EF15 whole entry): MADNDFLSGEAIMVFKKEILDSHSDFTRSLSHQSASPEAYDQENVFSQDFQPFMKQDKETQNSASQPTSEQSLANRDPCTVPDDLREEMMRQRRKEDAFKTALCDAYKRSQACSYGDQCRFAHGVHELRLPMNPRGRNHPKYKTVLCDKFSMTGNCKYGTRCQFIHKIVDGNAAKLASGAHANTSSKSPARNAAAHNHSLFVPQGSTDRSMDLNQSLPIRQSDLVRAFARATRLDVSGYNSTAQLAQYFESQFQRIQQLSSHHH

[2] = target: T2, Zinc finger protein mex-5 (Caenorhabditis elegans, UniProt Q9XUB2); experiment: potency of MEX-5 RNA-binding blockers – biochemical, C. elegans, fluorescence polarization, dose response (AID 1960)
T2 sequence (Q9XUB2 whole entry): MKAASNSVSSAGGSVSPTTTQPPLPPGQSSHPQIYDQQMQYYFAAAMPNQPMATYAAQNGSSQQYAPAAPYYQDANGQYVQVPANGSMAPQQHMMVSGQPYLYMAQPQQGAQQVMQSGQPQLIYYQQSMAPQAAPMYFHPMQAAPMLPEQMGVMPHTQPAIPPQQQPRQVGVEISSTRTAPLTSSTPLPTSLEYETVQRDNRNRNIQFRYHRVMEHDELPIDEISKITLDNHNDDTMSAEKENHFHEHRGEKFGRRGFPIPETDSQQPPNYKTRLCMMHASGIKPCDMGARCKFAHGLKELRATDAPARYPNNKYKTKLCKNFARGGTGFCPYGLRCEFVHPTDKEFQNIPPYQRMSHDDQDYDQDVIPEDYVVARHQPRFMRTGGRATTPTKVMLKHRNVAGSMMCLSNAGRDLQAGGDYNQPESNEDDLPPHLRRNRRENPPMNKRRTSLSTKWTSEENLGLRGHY

[3] = target: T3, Replicative DNA helicase DnaB (Mycobacterium tuberculosis, UniProt P9WMR3); experiment: DnaB intein splicing inhibitors, dose response, biochemical, cell-free fluorescence (AID 449749); type: functional
T3 sequence (P9WMR3 whole entry): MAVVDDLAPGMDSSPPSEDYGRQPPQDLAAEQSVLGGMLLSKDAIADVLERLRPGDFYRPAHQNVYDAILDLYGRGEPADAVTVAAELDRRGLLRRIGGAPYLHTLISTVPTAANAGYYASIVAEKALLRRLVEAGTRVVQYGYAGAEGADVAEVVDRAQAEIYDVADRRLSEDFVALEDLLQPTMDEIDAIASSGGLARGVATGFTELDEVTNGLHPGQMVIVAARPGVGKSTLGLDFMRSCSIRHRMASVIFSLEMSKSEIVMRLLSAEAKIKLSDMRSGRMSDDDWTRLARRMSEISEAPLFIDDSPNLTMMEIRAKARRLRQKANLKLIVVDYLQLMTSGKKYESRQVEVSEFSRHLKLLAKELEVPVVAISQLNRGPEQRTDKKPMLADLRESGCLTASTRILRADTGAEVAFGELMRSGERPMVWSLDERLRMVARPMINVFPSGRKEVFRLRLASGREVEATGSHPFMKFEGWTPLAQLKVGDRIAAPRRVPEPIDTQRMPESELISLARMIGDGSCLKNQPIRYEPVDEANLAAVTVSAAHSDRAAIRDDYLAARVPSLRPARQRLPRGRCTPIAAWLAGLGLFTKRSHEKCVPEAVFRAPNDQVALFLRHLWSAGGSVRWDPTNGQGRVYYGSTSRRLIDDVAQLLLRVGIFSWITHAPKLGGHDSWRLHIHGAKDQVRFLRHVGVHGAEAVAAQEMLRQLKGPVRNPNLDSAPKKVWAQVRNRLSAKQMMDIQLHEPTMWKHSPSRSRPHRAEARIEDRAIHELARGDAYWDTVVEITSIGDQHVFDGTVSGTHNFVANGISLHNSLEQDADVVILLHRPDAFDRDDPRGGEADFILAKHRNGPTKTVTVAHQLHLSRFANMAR

Protein RecA = target: T4, Protein RecA (Mycobacterium tuberculosis, UniProt P9WHJ3); experiment: Fluorescence Cell-Free Homogeneous Dose Retest to Identify Inhibitors of RecA-Intein Splicing Activity. [Related pubchem assays (depositor defined):AID2097, AID2223, AID489010, AID492950]; type: functional
T4 sequence (P9WHJ3 whole entry): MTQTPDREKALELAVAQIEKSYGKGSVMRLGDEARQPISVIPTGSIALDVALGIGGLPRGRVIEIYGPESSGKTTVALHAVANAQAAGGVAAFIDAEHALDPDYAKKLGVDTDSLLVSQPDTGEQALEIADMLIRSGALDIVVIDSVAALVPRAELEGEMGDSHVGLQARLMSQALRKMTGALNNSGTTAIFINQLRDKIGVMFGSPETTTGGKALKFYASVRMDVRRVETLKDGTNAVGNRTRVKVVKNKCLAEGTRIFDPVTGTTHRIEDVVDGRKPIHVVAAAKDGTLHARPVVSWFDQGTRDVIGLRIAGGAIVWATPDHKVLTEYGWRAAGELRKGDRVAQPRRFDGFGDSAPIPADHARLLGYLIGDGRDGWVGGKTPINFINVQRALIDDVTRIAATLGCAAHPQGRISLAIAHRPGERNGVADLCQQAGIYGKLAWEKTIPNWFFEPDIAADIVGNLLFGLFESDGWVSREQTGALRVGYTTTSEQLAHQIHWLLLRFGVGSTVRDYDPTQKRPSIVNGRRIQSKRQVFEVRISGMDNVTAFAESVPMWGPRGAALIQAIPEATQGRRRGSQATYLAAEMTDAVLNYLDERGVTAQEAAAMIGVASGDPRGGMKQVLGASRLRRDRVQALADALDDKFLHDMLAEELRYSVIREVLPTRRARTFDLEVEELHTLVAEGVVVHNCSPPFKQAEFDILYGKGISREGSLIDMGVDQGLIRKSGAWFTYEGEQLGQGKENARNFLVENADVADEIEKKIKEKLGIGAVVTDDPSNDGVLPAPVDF

[4] = target: T5, Heat shock factor protein 1 (Mus musculus, UniProt P38532); experiment: decrease of HSF1-responsive luciferase luminescence – cell-based, NIH3T3, dose retest, confirmation (AID 2382); type: functional;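 also: NIH3T3 fibroblasts with HSF1-driven luciferase reporter stressed by proteasome inhibitor MG132; luminescence from HSF1-driven luciferase expression after 8 hours of MG132 stress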
T5 sequence (P38532 whole entry): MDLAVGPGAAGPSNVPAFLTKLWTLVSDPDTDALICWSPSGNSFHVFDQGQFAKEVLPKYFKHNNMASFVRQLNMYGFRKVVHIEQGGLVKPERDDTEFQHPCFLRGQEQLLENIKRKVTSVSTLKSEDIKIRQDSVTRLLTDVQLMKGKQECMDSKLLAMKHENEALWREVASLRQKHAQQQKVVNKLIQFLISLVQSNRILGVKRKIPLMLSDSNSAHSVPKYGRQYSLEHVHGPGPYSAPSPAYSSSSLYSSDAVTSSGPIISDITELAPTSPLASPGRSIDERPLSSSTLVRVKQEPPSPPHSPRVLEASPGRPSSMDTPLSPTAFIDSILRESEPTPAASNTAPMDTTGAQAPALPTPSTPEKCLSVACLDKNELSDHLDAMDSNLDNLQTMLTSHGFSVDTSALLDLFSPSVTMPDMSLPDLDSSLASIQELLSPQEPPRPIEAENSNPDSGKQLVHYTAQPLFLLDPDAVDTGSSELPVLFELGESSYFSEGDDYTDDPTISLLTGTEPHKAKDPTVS

[5] = viability of uninfected HEp-2 cells – cell-based, HTS, cytotoxicity control for RSV inhibitor project, dose response (AID 2410); type: functional; details: human respiratory syncytial virus
[6] = target: T6, Corticotropin-releasing factor receptor 2/Corticotropin-releasing factor-binding protein (Homo sapiens, UniProt P24387+Q13324); experiment: activators of CRF receptor 2 with binding protein – uHTS hits, confirmation (AID 602473); type: functional; details: read-out: EC50_Mean
T6 sequence (Q13324 whole entry): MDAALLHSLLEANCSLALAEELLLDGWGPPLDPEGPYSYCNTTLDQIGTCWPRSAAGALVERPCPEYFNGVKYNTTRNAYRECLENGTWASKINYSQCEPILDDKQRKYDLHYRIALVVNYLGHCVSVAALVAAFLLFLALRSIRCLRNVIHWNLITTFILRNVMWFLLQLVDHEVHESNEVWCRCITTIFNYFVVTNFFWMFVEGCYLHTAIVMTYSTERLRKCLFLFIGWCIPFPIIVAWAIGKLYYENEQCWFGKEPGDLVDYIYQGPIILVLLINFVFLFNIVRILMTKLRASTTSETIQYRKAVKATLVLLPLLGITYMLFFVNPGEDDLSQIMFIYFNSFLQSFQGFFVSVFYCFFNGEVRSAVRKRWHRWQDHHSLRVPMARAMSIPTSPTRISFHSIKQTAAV
T6 sequence (P24387 whole entry): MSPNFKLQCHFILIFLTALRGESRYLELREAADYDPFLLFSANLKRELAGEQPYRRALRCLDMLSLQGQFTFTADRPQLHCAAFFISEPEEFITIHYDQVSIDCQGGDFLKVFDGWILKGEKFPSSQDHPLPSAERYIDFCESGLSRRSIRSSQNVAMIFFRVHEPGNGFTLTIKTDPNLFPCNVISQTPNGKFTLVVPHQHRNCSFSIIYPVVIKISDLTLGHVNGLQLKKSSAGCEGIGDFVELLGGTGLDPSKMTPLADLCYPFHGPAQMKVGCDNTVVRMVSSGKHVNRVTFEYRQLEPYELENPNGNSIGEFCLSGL

[7] = Luminescence Cell-Based Dose Confirmation HTS to Identify Activators of 5'UTR Stem-Loop Driven Alpha-Synuclein mRNA Translation in H4 Neuroglioblastoma Cells. [Related pubchem assays: 1829 (Project Summary), 1814 (Primary HTS)]; type: functional
[8] = Luminescence Cell-Based Dose Response HTS to Identify Activators of Luciferase Translation or Activity in H4 […] Cells. [Related pubchem assays: 1829 (Project Summary), 1814 (Primary HTS)]; type: functional
H4 = experiment: Luminescence Cell-Based Dose Response HTS to Identify Activators of 5'UTR Stem-Loop Driven Prion Protein mRNA Translation in H4 Neuroglioblastoma Cells. [Related pubchem assays: 1829 (Project Summary), 1814 (Primary HTS)]; type: functional; details: Homo sapiens
Paired box protein Pax-8 = Paired box protein Pax-8 (Homo sapiens, UniProt Q06710); experiment: PAX8 transcriptional activity inhibition in RMG-I – RMG-I cells, luciferase, cherry-pick, dose response (AID 687027); type: functional, cell-based;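 also: luciferase reporter driven by Pax8 target thyroperoxidase promoter measured by SteadyGlo luminescence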
Paired box protein Pax-8, sequence (Q06710 whole entry): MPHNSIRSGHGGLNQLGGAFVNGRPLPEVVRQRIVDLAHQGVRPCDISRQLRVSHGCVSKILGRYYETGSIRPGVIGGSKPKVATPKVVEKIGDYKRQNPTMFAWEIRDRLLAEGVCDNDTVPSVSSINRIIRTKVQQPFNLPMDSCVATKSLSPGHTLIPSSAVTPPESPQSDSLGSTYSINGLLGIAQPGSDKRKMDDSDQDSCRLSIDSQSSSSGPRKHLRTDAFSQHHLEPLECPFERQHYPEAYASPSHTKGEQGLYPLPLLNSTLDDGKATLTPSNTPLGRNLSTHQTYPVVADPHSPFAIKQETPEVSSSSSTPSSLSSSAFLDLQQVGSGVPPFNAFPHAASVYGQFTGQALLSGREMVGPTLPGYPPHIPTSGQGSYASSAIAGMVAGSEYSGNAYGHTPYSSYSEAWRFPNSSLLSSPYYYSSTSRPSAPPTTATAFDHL

CCCCC1=CC2=C(c3ccco3)C(=O)C(C)(OC(=O)c3ccc(OC)cc3)C(=O)C2=CN1C1CC1 (centres undefined)
EC50 [1]: > 300 µM (not active)
EC50 [2]: > 300 µM (not active)

CCc1cc(=O)oc2cc(C)cc(OC(C)C(=O)O)c12 (centres undefined)
EC50 [1]: > 300 µM (not active)
EC50 [2]: > 300 µM (not active)

N#CC(C#N)=NNc1ccc(S(=O)(=O)N2CCCC2)cc1
AC50 [3]: 6.9 µM (active)
EC50 (Protein RecA): 23.9 µM (active)

CC1=NN(c2ccccc2)C(=O)C1N=Nc1ccc(S(N)(=O)=O)cc1 (centres undefined)
EC50 [4]: > 195 µM (not active)

O=C(CSc1nnc(COc2ccc3c(c2)CCCC3)o1)Nc1ccc(F)cc1
EC50 [4]: > 195 µM (not active)

O=C(N1CCOCC1)N1CCC(n2nnc3cc(F)ccc32)CC1
EC50 [1]: 39.2 µM (active)
EC50 [2]: 46.7 µM (inconclusive)

COc1cc(SC)ccc1C(=O)NCC1CCCO1 (centres undefined)
EC50 [4]: > 195 µM (not active)

COC(CN(C(=O)CCl)C(C(=O)NC1CCCCC1)c1ccc(C)cc1)OC (centres undefined)
AC50 [3]: > 380 µM (inactive)
EC50 (Protein RecA): 7 µM (active)

CCN(CC)c1ccc(C=C2C(=O)OC(C)(C(C)(C)C)OC2=O)cc1 (centres undefined)
EC50 [1]: > 300 µM (inconclusive)
EC50 [2]: > 300 µM (inconclusive)

CC(c1ccc(O)cc1)(c1ccc(O)cc1)c1ccc(CCBr)cc1
CC50 [5]: 17.4 µM (active)
AC50 [3]: 46.4 µM (active)
EC50 (Protein RecA): 9.45 µM (active)

CCOC(=O)c1cnc2ccc(C)cc2c1Sc1ccccc1
AC50 [3]: 5.63 µM (active)
EC50 (Protein RecA): 5.87 µM (active)

CC1(C)CC(=O)C2=C(C1)N(Cc1ccccc1)C(=O)C2(NC(=O)C(C)(C)C)C(F)(F)F (centres undefined)
EC50 [4]: > 195 µM (not active)

COc1ccc(Nc2nc3ccccc3nc2NS(=O)(=O)c2cccs2)cc1
EC50 [1]: > 300 µM (inconclusive)
EC50 [2]: 34.8 µM (active)

Cc1cc(N2CCCCC2)nc(N)n1
EC50 [6]: 6.28 µM (active)

COc1cc2c(cc1/C=C1/NC(=O)N(c3ccccc3)C1=O)OCO2
EC50 [1]: > 300 µM (not active)
EC50 [2]: > 300 µM (not active)

Cc1cc(-n2c(C)cc(C(=O)CSc3nc4ccccc4c(=O)n3Cc3ccco3)c2C)no1
EC50 [6]: > 53 µM (inactive)

Cc1c(C(=O)Nc2ccc(F)cc2)sc2ncn(CC(=O)N3CCCCC3)c(=O)c12
EC50 [4]: > 195 µM (not active)

COc1ccc(Cl)cc1NC(=O)CSc1nc2ccsc2c(=O)n1CC1CCC(C(=O)O)CC1 (centres undefined)
CC50 [5]: > 50 µM (active)
EC50 [4]: > 195 µM (not active)

CCOC(=O)c1ccc(NC(=O)C2C3C=CC(O3)C2C(=O)O)cc1 (centres undefined)
EC50 [7]: > 60 µM (not active)
EC50 [8]: > 120 µM (not active)
EC50 [4]: > 195 µM (not active)
EC50 (H4): > 120 µM (not active)

Cc1ccc(S(=O)(=O)N(C)C[C@H]2Oc3ccc(NC(=O)Nc4ccc(C(F)(F)F)cc4)cc3CC(=O)N([C@@H](C)CO)C[C@H]2C)cc1
AC50 (Paired box protein Pax-8): 9.45 µM (active)

CCOc1ccc(/C=N/NC(=O)c2ccc(Cn3cc([N+](=O)[O-])cn3)o2)cc1
EC50 [4]: > 195 µM (not active)

Cc1ccc(/C=N/NC(=O)c2nnn(-c3nonc3N)c2CN(C)C2CCCCC2)cc1
EC50 [4]: > 195 µM (not active)

Cc1ccc(NCC(=O)N/N=C/c2ccc(C(=O)O)cc2)cc1
EC50 [1]: > 300 µM (not active)
EC50 [2]: > 300 µM (not active)
